Reference: patent publication US12281119B2, “Imidazo[2,1-f][1,2,4]triazin-4-amine derivatives as TLR7 agonist” (BEIGENE, LTD., priority 2019, dated 2025)

How the values were obtained:
[1] = biological target: T1, human TLR7 (Homo sapiens, UniProt Q9NYK1); experiment: TLR7 stimulation determined using HEK-Blue Detection; type: cell-based; set-up: expressed in transfected cells; host or cells: HEK293 (HEK-Blue hTLR7); settings: HEK-Blue hTLR7 cells, HEK-Blue Detection (A77-A124), 16 hr, relative to Resiquimod maximum
T1 sequence (Q9NYK1 27-1049): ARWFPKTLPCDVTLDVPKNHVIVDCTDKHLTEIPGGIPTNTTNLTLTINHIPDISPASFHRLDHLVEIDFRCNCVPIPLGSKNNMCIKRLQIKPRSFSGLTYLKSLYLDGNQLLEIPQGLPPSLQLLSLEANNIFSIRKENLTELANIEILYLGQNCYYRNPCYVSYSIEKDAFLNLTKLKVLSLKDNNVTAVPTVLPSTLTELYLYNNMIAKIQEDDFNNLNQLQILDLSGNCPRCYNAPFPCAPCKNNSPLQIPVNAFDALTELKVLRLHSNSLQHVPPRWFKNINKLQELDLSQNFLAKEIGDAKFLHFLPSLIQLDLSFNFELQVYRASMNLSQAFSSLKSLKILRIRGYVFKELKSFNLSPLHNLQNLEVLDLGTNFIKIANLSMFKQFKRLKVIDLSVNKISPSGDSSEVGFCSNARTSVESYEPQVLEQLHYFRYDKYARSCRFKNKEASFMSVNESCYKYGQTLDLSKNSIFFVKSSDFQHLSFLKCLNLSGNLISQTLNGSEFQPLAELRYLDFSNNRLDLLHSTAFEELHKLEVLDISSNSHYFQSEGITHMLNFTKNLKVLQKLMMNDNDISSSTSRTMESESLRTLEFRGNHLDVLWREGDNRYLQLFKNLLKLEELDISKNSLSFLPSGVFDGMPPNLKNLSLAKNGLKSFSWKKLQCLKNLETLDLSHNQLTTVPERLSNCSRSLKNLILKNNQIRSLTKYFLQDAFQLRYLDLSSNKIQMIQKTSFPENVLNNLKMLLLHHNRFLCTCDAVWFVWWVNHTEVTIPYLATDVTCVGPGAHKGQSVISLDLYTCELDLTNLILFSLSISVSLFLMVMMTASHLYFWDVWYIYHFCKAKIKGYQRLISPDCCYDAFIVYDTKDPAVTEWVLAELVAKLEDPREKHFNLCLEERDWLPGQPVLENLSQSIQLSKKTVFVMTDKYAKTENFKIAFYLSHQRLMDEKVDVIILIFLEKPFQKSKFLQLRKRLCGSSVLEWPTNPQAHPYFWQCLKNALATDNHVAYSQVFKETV
Procedure, shortened: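 HEK-Blue hTLR7 cells (HEK293 with NF-κB/AP-1-driven SEAP reporter), 40000 cells/well, treated with 10-point dilutions from 0.04 nM to 10 μM final in 0.1% DMSO for 16 h at 37° C. SEAP read as OD 620-655 nm; EC50 derived from % of maximum activation with resiquimod.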

[2] = biological target: T2, human TLR 8 protein (Homo sapiens, UniProt Q9NR97); experiment: TLR8 stimulation determined using HEK-Blue Detection; type: cell-based; settings: HEK-Blue hTLR8 cells, 16 hr, relative to Resiquimod or Motolimod maximum
T2 construct: expressed in transfected cells; host or cells: HEK293 (HEK-Blue hTLR8)
T2 sequence (Q9NR97 27-1041): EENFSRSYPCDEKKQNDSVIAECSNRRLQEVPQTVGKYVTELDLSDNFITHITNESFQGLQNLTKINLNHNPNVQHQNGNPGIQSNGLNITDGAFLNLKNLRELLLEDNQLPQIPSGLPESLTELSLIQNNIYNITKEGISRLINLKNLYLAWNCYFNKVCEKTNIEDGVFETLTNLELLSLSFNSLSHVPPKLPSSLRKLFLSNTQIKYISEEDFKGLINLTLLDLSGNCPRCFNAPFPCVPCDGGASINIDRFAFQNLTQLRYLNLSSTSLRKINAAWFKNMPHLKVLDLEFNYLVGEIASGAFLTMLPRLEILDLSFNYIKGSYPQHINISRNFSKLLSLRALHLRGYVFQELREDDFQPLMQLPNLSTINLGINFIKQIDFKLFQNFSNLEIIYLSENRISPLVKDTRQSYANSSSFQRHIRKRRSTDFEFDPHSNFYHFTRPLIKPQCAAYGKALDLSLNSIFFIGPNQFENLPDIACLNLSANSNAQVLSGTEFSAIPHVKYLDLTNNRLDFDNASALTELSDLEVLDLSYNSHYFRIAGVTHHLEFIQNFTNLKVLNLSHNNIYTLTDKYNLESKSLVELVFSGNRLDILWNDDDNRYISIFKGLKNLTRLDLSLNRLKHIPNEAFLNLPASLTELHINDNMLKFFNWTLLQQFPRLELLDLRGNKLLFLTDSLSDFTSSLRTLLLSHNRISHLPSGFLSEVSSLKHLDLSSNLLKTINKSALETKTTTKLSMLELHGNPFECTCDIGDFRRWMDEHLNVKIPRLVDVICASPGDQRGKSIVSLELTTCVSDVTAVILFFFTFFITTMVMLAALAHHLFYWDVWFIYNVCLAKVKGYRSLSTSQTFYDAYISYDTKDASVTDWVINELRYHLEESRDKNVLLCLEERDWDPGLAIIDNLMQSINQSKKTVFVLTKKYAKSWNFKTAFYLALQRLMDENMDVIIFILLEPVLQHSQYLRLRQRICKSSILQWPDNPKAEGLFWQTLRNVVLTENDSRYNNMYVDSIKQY
Procedure, shortened: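 HEK-Blue hTLR8 cells with NF-κB/AP-1-driven SEAP reporter, 40000 cells/well, treated with 10-point dilutions (1 nM-10 uM final, 0.1% DMSO) for 16 hr at 37° C. SEAP read as OD 620-655 nm. EC50 derived from percent of maximum activation set by Resiquimod or Motolimod.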

Structure (SMILES) | EC50 [1] | EC50 [2]
CCCC(CCO)Oc1nc(N)c2ncc(Cc3cc(OCCNC)ccc3OC)n2n1 (single isomer, unassigned) [Compound A113, (R or S)-3-((4-amino-7-(2-methoxy-5-(2-(methylamino)ethoxy)benzyl)imidazo[2,1-f][1,2,4]triazin-2-yl)oxy)hexan-1-ol] | 24 nM | 98 nM
CCCC(C)Oc1nc(N)c2ncc(Cc3ccc(OCCNC)nc3)n2n1 (stereo not drawn) [Compound A77, 7-((6-(2-(methylamino)ethoxy)pyridin-3-yl)methyl)-2-(pentan-2-yloxy)imidazo[2,1-f][1,2,4]triazin-4-amine] | 19.2 nM | 293 nM
CCCC(CCO)Oc1nc(N)c2ncc(Cc3ccc(OCCNC)c(F)c3)n2n1 (single isomer, unassigned) [Compound A105, (R or S)-3-((4-amino-7-(3-fluoro-4-(2-(methylamino)ethoxy)benzyl)imidazo[2,1-f][1,2,4]triazin-2-yl)oxy)hexan-1-ol] | 61 nM | 622 nM
CCCC(CCC)Oc1nc(N)c2ncc(Cc3ccc(OCCNC)nc3)n2n1 [Compound A87, 2-(heptan-4-yloxy)-7-((6-(2-(methylamino)ethoxy)pyridin-3-yl)methyl)imidazo[2,1-f][1,2,4]triazin-4-amine] | 10.5 nM | 434 nM
CCCC(CCO)Oc1nc(N)c2ncc(Cc3ccc(N(C)CCNC)cc3)n2n1 (stereo not drawn) [Compound A94, 3-((4-amino-7-(4-(methyl(2-(methylamino)ethyl)amino)benzyl)imidazo[2,1-f][1,2,4]triazin-2-yl)oxy)hexan-1-ol] | 13.8 nM | 146 nM

These reach a lower EC50 [1]. Values come first.

EC50 [1] | EC50 [2] | Structure (SMILES)
3.4 nM | 47 nM | CCCC(CCO)Oc1nc(N)c2ncc(Cc3ccc(OC(C)CNC)nc3)n2n1 (single isomer, unassigned) [Compound A109, (3R or S)-3-((4-amino-7-((6-((1-(methylamino)propan-2-yl)oxy)pyridin-3-yl)methyl)imidazo [2,1-f][1,2,4]triazin-2-yl)oxy)hexan-1-ol]
8 nM | 19 nM | CCCC(CCO)Oc1nc(N)c2ncc(Cc3ccc(CCNC)cc3)n2n1 (stereo not drawn) [Compound A95, 3-((4-amino-7-(4-(2-(methylamino)ethyl)benzyl)imidazo[2,1-f][1,2,4]triazin-2-yl)oxy)hexan-1-ol]
4.5 nM | 41 nM | CCCC(CCO)Oc1nc(N)c2ncc(Cc3ccc(OCCNC)cc3)n2n1 (stereo not drawn) [Compound A85, 3-((4-amino-7-(4-(2-(methylamino)ethoxy)benzyl)imidazo [2,1-f][1,2,4]triazin-2-yl)oxy)hexan-1-ol]
0.78 nM | 8.6 nM | CCCC(CCO)Oc1nc(N)c2ncc(Cc3ccc(OCCNC)cc3OC)n2n1 (single isomer, unassigned) [Compound A101, (R or S)-3-((4-amino-7-(2-methoxy-4-(2-(methylamino)ethoxy)benzyl)imidazo[2,1-f][1,2,4]triazin-2-yl)oxy)hexan-1-ol]
8.9 nM | 112 nM | CCC[C@H](C)Oc1nc(N)c2ncc(Cc3ccc(OCCNC)nc3)n2n1 [Compound A90, (S)-7-((6-(2-(methylamino)ethoxy)pyridin-3-yl)methyl)-2-(pentan-2-yloxy)imidazo[2,1-f][1,2,4]triazin-4-amine]
1 nM | 10 nM | CCCC(CCO)Oc1nc(N)c2ncc(Cc3ccc(OCCNC)cc3F)n2n1 (stereo not drawn) [Compound A97, 3-((4-amino-7-(2-fluoro-4-(2-(methylamino)ethoxy)benzyl)imidazo[2,1-f][1,2,4]triazin-2-yl)oxy)hexan-1-ol]
1.6 nM | 12 nM | CCCC(CCO)Oc1nc(N)c2ncc(Cc3ccc(OCCNC)c(F)c3)n2n1 (single isomer, unassigned) [Compound A106, (S or R)-3-((4-amino-7-(3-fluoro-4-(2-(methylamino)ethoxy)benzyl)imidazo[2,1-f][1,2,4]triazin-2-yl)oxy)hexan-1-ol]
